Data published in PMC9549944, “In vitro and in silico assessment of new beta amino ketones with antiplasmodial activity” (Revista da Sociedade Brasileira de Medicina Tropical, 2022).
Read-outs that look alike come from different tables or passages of the source.

Tested on: P. falciparum strain W2 (chloroquine-resistant)
Assay: In vitro antiplasmodial activity, SYBR Green-based assay
Format: cell-based
Settings: for SI (selectivity index): ratio LD50 (WI-26VA4) / IC50 (P. falciparum W2)
Description: Ring-stage parasites were equally distributed in 96-well microculture plates. Serial dilutions of the compounds were performed ranging from 0.01 to 100 μg/mL. […] A fluorometer (Fluoroskan Ascent, Thermo Laboratories) with excitation at 485 nm and emission at […] was used to determine the viability of the parasites. All experiments were performed in triplicates.
Selectivity index (SI) is the ratio between the values of LD50 and IC50 […] of each compound tested.
IC50 and LD50 were determined using the equation of the curve obtained by plotting parasitemia reduction (%) or cellular death (%) vs. the concentration of the compound (log scale) using the GraphPad Prism software (version 5.0 for Windows, San Diego, California, USA). Due to the non-normality of the data distribution, the comparison of IC50 and LD50 between morpholine and piperidine was analyzed using the nonparametric Mann-Whitney U test. Statistical significance was defined at 5% (p<0.05).

[1] = Plasmodium falciparum, W2, read-out: IC50 ± SD (drug concentration that reduced parasite viability in 50%), P. falciparum W2 chloroquine-resistant, SYBR, mean and SD of triplicate experiments
[2] = read-out: IC50 ± SD (drug concentration that reduced parasite viability in 50%), P. falciparum W2 chloroquine-resistant, SYBR, mean and SD of triplicate experiments

| IC50 [1] [µM] | IC50 [2] [µM] | Structure (SMILES) | SI (selectivity index) | IC50 (Plasmodium falciparum, W2, read-out: IC50 ± SD (drug concentration that reduced parasite viability in 50%)) [µM] |
| --- | --- | --- | --- | --- |
| 32.53 ± 0.02 | – | CC(CN1CCOCC1)C(=O)c1ccccc1 (stereo not drawn) [Compound 3, 2-methyl-3-(morpholin-4-yl)-1-phenylpropan-1-one] | > 3.07 | – |
| < 0.98 | 0.98 ± 0.01 | O=C(CCN1CCOCC1)c1ccccc1 [Compound 1, 3-(morpholin-4-yl)-1-phenylpropan-1-one] | – | – |
| < 3.59 | 3.59 ± 0.08 | O=C(CCN1CCCCC1)c1ccccc1 [Compound 2, 1-phenyl-3-(piperidin-1-yl)propan-1-one] | 9.46 | – |
| > 1 | 0.78 ± 0.09 | CC(CN1CCCCC1)C(=O)c1ccccc1 (stereo not drawn) [Compound 4, 2-methyl-1-phenyl-3-(piperidein-1-yl)propan-1-one] | – | – |
| – | – | CCN(CC)CCCC(C)Nc1ccnc2cc(Cl)ccc12 (stereo not drawn) [Chloroquine (CQ), Chloroquine, reference compound] | – | 0.92 ± 0.01 |
| 48 ± 18.5 | – | CCCCCCC(CN1CCCCC1)C(C)=O (stereo not drawn) [Compound 8, 3[(piperdin-1-yl)methyl]nonan-2-one] | 0.81 | – |
